These results are taken from publication PMC9331314, “Synthesis and Antiviral Properties of Camphor-Derived Iminothiazolidine-4-Ones and 2,3-Dihydrothiazoles” (Molecules, 2022).

Data set [1] concerns Vero cells.
Data set [2] is described as follows: in vitro. To be noted: human.
In data set [3] the test system is Marburg pseudovirus (GP MARV). The experiment in a line: microbe, parasite or virus in culture. The following applies: 24 h.
Data set [4] concerns vaccinia virus (strain Copenhagen).
Data set [5] is described as follows: in vitro. To be noted: African green monkey.
The test system of data set [6] is vaccinia virus (strain Copenhagen). The experiment in a line: microbe, parasite or virus in culture. To be noted: Orthopoxvirus vaccinia, Vero, 96 h.
The subject of data set [7] is Marburg pseudovirus (GP MARV).
The subject of data set [8] is HEK293FT cells.
Data set [9] relates to VSV-GP-EboV. The following applies: cited from earlier work.
The subject of data set [10] is VV. The following applies: cited from earlier work.
For data set [11], the system named is H1N1. To be noted: cited from earlier work.

Read-outs that look alike come from different tables or passages of the source.

What is called IC50 is the concentration needed to halve the response being measured. As for `CC1(C)[C@H]2CC[C@]1(C)/C(=N/NC(=S)Nc1ccccc1)C2` [2′a, (E)-N-phenyl-2-((1S,4S)-1,7,7-trimethylbicyclo[2.2.1]heptan-2-ylidene)hydrazinecarbothioamide], the CC50 result in [1] was “quite toxic”; in data set [2], 280 ± 38.6 µM; in data set [5] it was 16 ± 2.8 µM. The half-maximal inhibitory concentration (IC50) was 5.9 ± 2.1 µM in [3], “lower micromolar range” in data set [4] and 4.3 ± 1.8 µM in [6]. Besides, the “SI (CC50/IC50)” value in data set [4] worked out at 4.

For `CNC(=S)N/N=C1\C[C@@H]2CC[C@@]1(C)C2(C)C` [2′d, (E)-N-methyl-2-((1S,4S)-1,7,7-trimethylbicyclo[2.2.1]heptan-2-ylidene)hydrazinecarbothioamide], the values for the CC50 entry in data set [1], in [2] and in data set [5] were “least cytotoxicity”, 66.9 ± 18.2 µM and 130 ± 14.2 µM, respectively. Also, the values for the IC50 in data set [3], in [4] and in data set [6] were 29.2 ± 4.2 µM, “low” and 35 ± 5.8 µM, respectively. Also, the “SI (CC50/IC50)” value in data set [4] stood at 5; in [7] it was 2.

On to `CC1(C)[C@@H]2CC[C@@]1(C)/C(=N/NC(=S)Nc1ccccc1)C2` [Compound 2a, (E)-N-phenyl-2-((1R,4R)-1,7,7-trimethylbicyclo[2.2.1]heptan-2-ylidene)hydrazinecarbothioamide], for which the CC50 result in [1] is “quite toxic”; in [2], 700 ± 43.1 µM; in [5], 24 ± 3.4 µM. Besides, the results for the 50% inhibitory concentration (IC50) in data set [3], in [4] and in data set [6] were 398 ± 33.2 µM, “lower micromolar range” and 6.7 ± 0.9 µM, respectively. For the same molecule, the “SI (CC50/IC50)” value in [4] was determined as 4; in [7], 2.

Consider `C=CCNC(=S)N/N=C1\C[C@H]2CC[C@]1(C)C2(C)C` [Compound 2b, (E)-N-allyl-2-((1R,4R)-1,7,7-trimethylbicyclo[2.2.1]heptan-2-ylidene)hydrazinecarbothioamide], for which the results for the CC50 entry in data set [1], in [2] and in data set [5] were “least cytotoxicity”, 128 ± 37.8 µM and 200 ± 23.8 µM, respectively. The values for the IC50 in data set [3] and in data set [4] were 24.5 ± 3.8 µM and “low”, respectively. Also, the “SI (CC50/IC50)” value in [7] came out at 5.

On to `CNC(=S)N/N=C1\C[C@H]2CC[C@]1(C)C2(C)C` [Compound 2d, (E)-N-methyl-2-((1R,4R)-1,7,7-trimethylbicyclo[2.2.1]heptan-2-ylidene)hydrazinecarbothioamide], for which the CC50 entry is “least cytotoxicity” in [1], 62.8 ± 17.1 µM in data set [2] and 150 ± 17.9 µM in data set [5]. Besides, the results for the IC50 in [3], in [4] and in data set [6] were 28 ± 4.2 µM, “low” and 97 ± 19.8 µM, respectively. For the same molecule, in [4], the “SI (CC50/IC50)” value is given as 2.

Turning to `CC12CCC(CC1=NN=C1SCC(=O)N1c1ccccc1)C2(C)C` [Compound 3a, ((Z)-3-phenyl-2-((E)-((1R,4R)-1,7,7-trimethylbicyclo[2.2.1]heptan-2-ylidene)hydrazono)thiazolidin-4-one], the CC50 is 1260 ± 52.7 µM in data set [2], “least toxicity” in data set [8] and 290 ± 39.1 µM in data set [5]. In [3], the IC50 was 237 ± 5.9 µM. Besides, in data set [7], the “SI (CC50/IC50)” value turned out to be 5.

On to `C=CCN1C(=O)C(C)(C)S/C1=N/N=C1/C[C@H]2CC[C@]1(C)C2(C)C` [Compound 4b, (Z)-3-allyl-5,5-dimethyl-2-((E)-((1R,4R)-1,7,7-trimethylbicyclo[2.2.1]heptan-2-ylidene)hydrazono)thiazolidin-4-one], for which the CC50 in data set [2] is 959.5 ± 6.8 µM; in data set [8] it was “least toxicity”. In data set [3], this molecule returned a half-maximal inhibitory concentration (IC50) of 255 ± 45 µM. The “SI (CC50/IC50)” value in [7] turned out to be 4.

Take `CN1C(=O)C(C)(C)S/C1=N/N=C1/C[C@H]2CC[C@]1(C)C2(C)C` [Compound 4d, (Z)-3,5,5-trimethyl-2-((E)-((1R,4R)-1,7,7-trimethylbicyclo[2.2.1]heptan-2-ylidene)hydrazono)thiazolidin-4-one]: the CC50 entry is “low toxicity” in [1], 514 ± 34.1 µM in [2] and 310 ± 38.7 µM in [5]. Also, the half-inhibitory concentration (IC50) in data set [3] was 39 ± 3.3 µM; in [4] it was “highest activity”; in data set [6], 12.7 ± 1.4 µM. For the same molecule, the “SI (CC50/IC50)” value is on record as 24 in data set [4] and 13 in data set [7].

Take `CC1(C)[C@@H]2CC[C@@]1(C)/C(=N/N=c1/scc(-c3ccc(Cl)cc3)n1-c1ccccc1)C2` [Compound 5a, (E)-4-(4-chlorophenyl)-3-phenyl-2-((E)-((1R,4R)-1,7,7-trimethylbicyclo[2.2.1]heptan-2-ylidene)hydrazono)-2,3-dihydrothiazole]: the CC50 in [2] is 872 ± 52.8 µM; in [8], “least toxicity”; in data set [5], 229 ± 24.7 µM. Inhibition in [3] was half-maximal at 103 ± 6.9 µM (IC50). In addition, the “SI (CC50/IC50)” value in [7] was 8.

Take `Cn1c(-c2ccc(Cl)cc2)cs/c1=N/N=C1\C[C@H]2CC[C@]1(C)C2(C)C` [Compound 5d, (E)-4-(4-chlorophenyl)-3-methyl-2-((E)-((1R,4R)-1,7,7-trimethylbicyclo[2.2.1]heptan-2-ylidene)hydrazono)-2,3-dihydrothiazole]: the values for the CC50 entry in data set [1], in data set [2] and in data set [5] were “least toxic”, 107 ± 5.3 µM and 144 ± 18.7 µM, respectively. Moreover, the half-inhibitory concentration (IC50) in [3] was determined as 10.7 ± 2.7 µM; in [6] it was 2.6 ± 0.2 µM. In addition, the “SI (CC50/IC50)” value in data set [7] amounted to 10.

As to `CC1(C)[C@@H]2CC[C@@]1(C)/C(=N/N=c1/scc(-c3ccccc3)n1-c1ccccc1)C2` [Compound 8a, (E)-3,4-diphenyl-2-((E)-((1R,4R)-1,7,7-trimethylbicyclo[2.2.1]heptan-2-ylidene)hydrazono)-2,3-dihydrothiazole], the CC50 in data set [2] amounted to 89.6 ± 19.9 µM; in data set [5], 122 ± 14.7 µM. Also, the IC50 in data set [3] was 29.9 ± 5 µM; in data set [6], 18 ± 1.9 µM. Moreover, the “SI (CC50/IC50)” value in data set [4] amounted to 7; in data set [7], 3.

In the case of `C=CCn1c(-c2ccccc2)cs/c1=N/N=C1\C[C@H]2CC[C@]1(C)C2(C)C` [Compound 8b, (E)-3-allyl-4-phenyl-2-((E)-((1R,4R)-1,7,7-trimethylbicyclo[2.2.1]heptan-2-ylidene)hydrazono)-2,3-dihydrothiazole], the values for the CC50 in data set [2] and in data set [5] were under 41 µM and 17 ± 2.9 µM, respectively. Also, the figures for the IC50 in data set [3] and in data set [6] were 19.2 ± 2.7 µM and 3 ± 0.4 µM, respectively. Further, the “SI (CC50/IC50)” value in [4] is 6; in data set [7] it was under 2.

For `CCn1c(-c2ccccc2)cs/c1=N/N=C1\C[C@H]2CC[C@]1(C)C2(C)C` [Compound 8c, (E)-3-ethyl-4-phenyl-2-((E)-((1R,4R)-1,7,7-trimethylbicyclo[2.2.1]heptan-2-ylidene)hydrazono)-2,3-dihydrothiazole], the CC50 in [2] was under 42.4 µM; in data set [5], 17 ± 3.3 µM. Further, the IC50 in data set [3] is 28.3 ± 2.8 µM; in [6], 3 ± 0.5 µM. For the same molecule, the “SI (CC50/IC50)” value in [4] was 6; in data set [7], under 2.

`Cn1c(-c2ccccc2)cs/c1=N/N=C1\C[C@H]2CC[C@]1(C)C2(C)C` [Compound 8d, (E)-3-methyl-4-phenyl-2-((E)-((1R,4R)-1,7,7-trimethylbicyclo[2.2.1]heptan-2-ylidene)hydrazono)-2,3-dihydrothiazole]: the CC50 in [2] was under 44.2 µM; in data set [5], 14 ± 2.4 µM. For the same molecule, the figures for the IC50 in data set [3] and in data set [6] were 26.5 ± 5.9 µM and 1.5 ± 0.2 µM, respectively. The “SI (CC50/IC50)” value was 9 in data set [4] and under 2 in data set [7].

Turning to `CCN1CCN(CCC(=O)N[C@@H]2C[C@H]3CC[C@]2(C)C3(C)C)CC1` [IIIa], in [9], the IC50 was 0.6 µM and the SI is 908.

With `CC1(C)[C@@H]2CC[C@@]1(C)[C@H](NC(=O)CN1CCOCC1)C2` [IIIb], in data set [10], the IC50 was 12.5 µM and the SI is on record as 40. Also, in data set [9], the concentration for half-maximal inhibition (IC50) was 5.7 µM and the SI is given as 147.

`CC1(C)[C@H]2CC[C@]1(C)[C@H](OC(=O)CN1CCOCC1)C2` [IIa]: the concentration for half-maximal inhibition (IC50) in [10] was 17.9 µM; in [9] it was 24.9 µM; in [11] it was 7.1 µM. For the same molecule, the results for the SI in data set [10], in data set [9] and in [11] were 56, 13 and 82, respectively.

Consider `CN1CCN(CC(=O)O[C@@H]2C[C@@H]3CC[C@@]2(C)C3(C)C)CC1` [IIb], for which the IC50 was 6.8 µM in [9] and 4.4 µM in data set [11]. The SI is on record as 46 in [9] and 23 in data set [11].

Turning to `CC1(C)[C@@H]2CC[C@@]1(CS(=O)(=O)N1CCOCC1)C(=O)C2` [IVa], in [9], the concentration for half-maximal inhibition (IC50) was 0.9 µM and the SI is 921.

Regarding `CC1(C)[C@@H]2CC[C@@]1(CS(=O)(=O)n1cncn1)C(=O)C2` [IVb], in data set [9], the 50% inhibitory concentration (IC50) was 1 µM and the SI was 1764.

In the case of `CC1CCN(CCC(=O)O[C@@H]2C[C@@H]3CC[C@@]2(C)C3(C)C)CC1` [Ia], in [9], the IC50 is 0.3 µM and the SI was 956.

On to `CC1(C)[C@H]2CC[C@]1(C)[C@H](OC(=O)CCN1CCOCC1)C2` [Ib], for which, in [10], the IC50 was 3.5 µM and the SI is 48. Further, in data set [11], the IC50 was 12.2 µM and the SI is given as 45.

With `CN1CCN(CCC(=O)O[C@@H]2C[C@@H]3CC[C@@]2(C)C3(C)C)CC1` [Ic], the IC50 is 0.3 µM in data set [9] and 1.9 µM in data set [11]. Also, the SI in data set [9] is on record as 870; in data set [11] it was 215.

Regarding `CC1(C)[C@@H]2CC[C@@]1(C)/C(=N/Nc1nc(-c3ccc(Cl)cc3)cs1)C2` [Va], in data set [10], the IC50 is 2.7 µM and the SI is recorded as 24.

On to `CC1(C)[C@@H]2CC[C@@]1(C)/C(=N/Nc1nc(-c3ccc(Br)cc3)cs1)C2` [Vb], for which, in [10], the IC50 was 2.4 µM and the SI is on record as 32.

Regarding `COc1ccc(-c2csc(N/N=C3\C[C@H]4CC[C@]3(C)C4(C)C)n2)cc1` [Vc], in [10], the IC50 is 3.7 µM and the SI is 26.
